Where “and” joins values, the source holds several entries; their conditions need not be identical. Identical values can stand only once.
Experiments:
HL-60 cells [1] = test: MTT cytotoxicity assay, HL-60; type: cell-based, human; settings: Homo sapiens, HL-60, 48 h, MTT, 46 h + 2 h incubation
Protocol: (§1) The first stage of the study used the MTT viability test to determine the cytotoxicity of ten compounds, i.e., 3-arylidenechromanone, 3-arylideneflavanone, spirochromanone and spiro- flavanone analogues, against four human cancer cell lines: HL-60, NALM-6, WM-115 and COLO-205.
(§2) Cytotoxicity was tested against human skin melanoma cells (WM-115, ECACC, Salisbury, UK), two human leukemia cell lines, viz. promyelocytic leukemia (HL-60) and lymphoblastic leukemia (NALM-6), and human colon adenocarcinoma cells (COLO-205). The cell lines COLO-205, WM-115 and HL-60 used in this work came from the ATCC American Type Culture Collection (Manassas, VA, USA), whereas the NALM-6 cell line was purchased from the German Collection of Microorganisms and Cell Cultures (Braunschweig, Germany). The leukaemia cells and colon adenocarcinoma were cultured in RPMI 1640 medium (Invitrogen, Grand Island, NY, USA) supplemented with 10% fetal bovine serum (FBS; Invitrogen) and gentamicin (25 µg/mL; KRKA, Novo Mesto, Slovenia). For melanoma WM-115 cells, Dulbecco’s minimal essential medium (DMEM; Invitrogen) was used. All cell lines were cultured at 37 °C in a humidified atmosphere of 5% CO2 in air.
(§3) For all experiments, the studied compounds were dissolved in DMSO (Sigma-Aldrich) and were further diluted in culture medium to obtain <0.1% DMSO concentration. In each experiment, controls with and without 0.1% DMSO were performed. The cytotoxicity of all compounds and of the reference compounds 4-chromanone and 3-benzylideneflavanone was determined by the MTT assay, i.e., 3-(4,5-dimethylthiazol-2-yl)-2,5-diphenyltetrazolium bromide (Sigma, St. Louis, MO, USA), which measures cellular dehydrogenase activity. Exponentially growing cells were seeded a day before the experiment onto a 96-well microplates (Nunc, Roskilde, Denmark) at a density up to 6–8 × 10^3 cells/well (depending on the cell line). Subsequently, various concentrations of the studied compounds freshly prepared in DMSO and diluted with complete culture medium were added. All compounds were tested for their cytotoxicity at a final concentration of 10^−7–10^−3 M. After 46 h of incubation with the studied compounds, the cells were treated with the MTT reagent and incubation was continued for another two hours. MTT – formazan crystals were dissolved in 20% sodium dodecyl sulphate (SDS, Sigma-Aldrich) and 50% DMF (Sigma-Aldrich) at pH 4.7; following this, absorbance was read at 570 nm on a multifunctional Victor ELISA-plate reader (Perkin Elmer, Turku, Finland). The IC50 values, i.e., the concentration of the test compound required to reduce the cell survival fraction to 50% of controls, were calculated from concentration-response curves and used as a measure of the sensitivity of the cells to a given treatment. As a control, cultured cells were grown in the absence of drugs. The data points represent the means of at least five to ten repeats ± standard deviation (S.D.).

HL-60 cells [2] = test: Cell cycle analysis by flow cytometry (propidium iodide); type: cell-based, human; settings: for cell cycle, G1, mean / cell cycle, G2/M, mean / cell cycle, S, mean: mean of n=2; for cell cycle distribution, G1 / cell cycle distribution, G2 / cell cycle distribution, G2/M: HL-60, 20 h, mean ± SD, n = 2
Protocol: The next stage examined the effects of the selected compounds on cell cycle progression in HL-60 leukemia cells. […] One million HL-60 (subline CCL 240; cell type: promyeloblast) cells in 3 mL of RPMI 1640 supplemented with 20% FBS were seeded on 6-well plate. […] Fixed cells were stored in −20 °C for 2–3 days. Before analysis, cells were centrifuged (10 min, 1500 rpm, 4 °C) and washed twice with cold PBS. After the second wash, the cells were suspended in 1mL of PBS containing 100 μg of RNase A and incubated in 37 °C for 10 min. Next, 5 μL of solution of propidium iodide (1 mg/mL) was added to each sample and incubated in dark for 30 min at RT. Stained cells were analyzed by flow cytometry (FACS Calibur, BD Biosciences, San Jose, CA, USA). Data from 10,000 gated cells were collected using CellQuestPro software (Ver 6.0, Becton Dickinson) and cell cycle analysis was performed with ModFit LT software (Ver 3.2, Verity Software House, Topsham, ME, USA).

NALM-6 cells = test: MTT cytotoxicity assay, NALM-6; type: cell-based, human; settings: Homo sapiens, NALM-6, 48 h, MTT, 46 h + 2 h incubation
Protocol: as §1, §2, §3

WM-115 cells = test: MTT cytotoxicity assay, WM-115; type: cell-based, human; settings: Homo sapiens, WM-115, 48 h, MTT, 46 h + 2 h incubation
Protocol: as §1, §2, §3

[3] = Lipophilicity (logP) by RP-TLC; settings: RP-18 F254S TLC plates
[4] = Figure S3, HL-60, 0.5 × IC50 (µM: quercetin 29, 1 1.5, 7 18, 10 4.7, 11 4.5, 12 6)
[5] = Figure S3, HL-60, 0.5 × IC50, each of two repetitions
[6] = Figure S3, HL-60, 1 × IC50 (µM: quercetin 58, 1 3, 7 35, 10 9.4, 11 9, 12 12)
[7] = Figure S3, HL-60, 1 × IC50, each of two repetitions
[8] = 0.5 × IC50 (µM: quercetin 29, 2 1.5, 7 18, 12 6, 11 4.5, 10 4.7)
[9] = 1 × IC50 (µM: quercetin 58, 2 3, 7 35, 12 12, 11 9, 10 9.4)

O=C1/C(=C/c2ccccc2)COc2ccccc21 [Compound 7, (E)-3-benzylidene-chroman-4-one]
IC50 (HL-60 cells [1]): 34.8 ± 2.87 µM
cell cycle, G1, mean (HL-60 cells [2]; [4]): 57,71%
cell cycle, G2/M, mean (HL-60 cells [2]; [4]): 20,82%
cell cycle, S, mean (HL-60 cells [2]; [4]): 21,48%
cell cycle, G1, single repetitions (HL-60 cells [2]; [5]): 52,64% and 62,77%
cell cycle, G2/M, single repetitions (HL-60 cells [2]; [5]): 18,44% and 23,20%
cell cycle, S, single repetitions (HL-60 cells [2]; [5]): 18,79% and 24,16%
cell cycle, G1, mean (HL-60 cells [2]; Figure S3, HL-60, 1 × IC50 (µM in parenthesis: quercetin 58, 1 3, 7 35, 10 9.4, 11 9, 12 12)): 50,37%
cell cycle, G2/M, mean (HL-60 cells [2]; [6]): 26,09%
cell cycle, S, mean (HL-60 cells [2]; [6]): 23,55%
cell cycle, G1, single repetitions (HL-60 cells [2]; [7]): 51,06% and 49,68%
cell cycle, G2/M, single repetitions (HL-60 cells [2]; [7]): 26,04% and 26,13%
cell cycle, S, single repetitions (HL-60 cells [2]; [7]): 22,89% and 24,20%
cell cycle distribution, G1 (HL-60 cells [2]; [8]): 57.7 ± 7.2%
cell cycle distribution, G2 (HL-60 cells [2]; [8]): 21.5 ± 3.8%
cell cycle distribution, G2/M (HL-60 cells [2]; [8]): 20.8 ± 3.4%
cell cycle distribution, G1 (HL-60 cells [2]; [9]): 50.4 ± 1.0%
cell cycle distribution, G2 (HL-60 cells [2]; [9]): 23.5 ± 0.9%
cell cycle distribution, G2/M (HL-60 cells [2]; [9]): 26.1 ± 0.1%
cells arrested in G2/M phase (HL-60 cells [2]; HL-60, concentrations of IC50 and 0.5 × IC50): 20–26%
IC50 (NALM-6 cells): 6.83 ± 0.18 µM
IC50 (WM-115 cells): 12.8 ± 1.83 µM
chromatographic logP [3]: 4.23
